Measurements taken from patent US20200323860A1, “METHODS AND MATERIALS FOR TREATING CANCER” (Mayo Foundation for Medical Education and Research, priority 2015, published 2020).

How the values were obtained:
[1] = tested on: Parkin phosphorylation at Ser378; experiment: Parkin Ser378 phosphorylation in cells, IP and immunoblot with pS378 antibody; format: cell-based
Procedure: FIGS. 9A-9K. Parkin Is Phosphorylated by Plk1 at Ser378 and Activated during Mitosis. (A) Cells were synchronized at the G1/S transition by double-thymidine block, and cells were released. Cell were harvested at indicated times and analyzed by immunobloting. (B) Cells were incubated in the absence or presence of nocodazole or CCCP and subjected to immunoblot analysis with the indicated antibodies. (C) Comparison of the sequences surrounding 5378 of Parkin orthologues (SEQ ID NOS 42-47, respectively, in order of appearance). […] Immunoprecipitates were incubated with or without λ phosphatase (PPase) and were analyzed by immunobloting with pS378 antibody. (E) Cells were infected with the indicated constructs, synchronized by nocodazole, and released. Parkin phosphorylation at pS378 was then examined by immunoblot analysis. (F) Cells were transfected with indicated plasmids, and Parkin phosphorylation at pS378 was examined. (G) In vitro kinase assay of Parkin by Plk1. Parkin phosphorylation was visualized by pS378 Parkin antibody. (H) Cells were transfected with the indicated plasmids, and then treated with nocodazole. Cell lysates were then blotted with the indicated antibodies. (I) in vitro ubiquitination of Cyclin B1, Securin and Nek2A by WT Parkin and mutants (S65A, S65D, S378A and S378D). […] Samples were analyzed by immunobloting with anti-Cyclin B1, Securin and Nek2A antibody. […]

[2] = tested on: lung normal fibroblast (WI-38 and IMR 90 cells); experiment: Growth inhibition of normal lung fibroblasts; format: cell-based, human; conditions: WI-38 and IMR 90 cells (FIG. 13E and 13F)
Procedure: (§1) FIG. 13A-13F. […] (A and B) Parkin WT and KO MEFs under various condition were analyzed for foci formation assay, number of cell growth, SA-β-gal staining for senescence, colony formation assay. Cells were infected or treated with the indicated constructs or chemical and stained (A, left). Cells were infected with the indicated constructs and stained (B, left). Quantification of (left panel) with stained cell intensity results represent the means (±S.E.) of three independent experiments performed in triplicate (right). *, p<0.05, **, p<0.01 and ***, p<0.001 by one-way ANOVA. […] Quantification of cell numbers results represent the means (±S.E.) of three independent experiments performed in triplicate. ***, p<0.001 by one-way ANOVA.
(§2) All cell lines were sourced from commercial venders. […] Three normal lung (2 fibroblasts, IMR-90 and WI-38; 1 epithelial cells; BEAS-2B) cells, six NSCLCs (4 adenocarcinoma, H1437, H522, H1650 and A549; 2 large cell carcinoma, H460 and H1299), and one SCLC (H196) cells were maintained in Eagle's minimal essential media (EMEM, Gibco-Invitrogen, Grand Island, N.Y.). The human lung fibroblast IMR-90 and WI-38 cells were obtained from the American Type Culture Collection (ATCC, Manassas, Va.), and cells ranging from 29 to 34 in population doubling level (PDL) were used. […]

[3] = tested on: Parkin WT or KO MEF cells; experiment: Sensitivity of Parkin WT or KO MEF cells to BI […], crystal violet staining; format: cell-based, mouse; conditions: FIG. 11F
Procedure: (A) Cells were transfected with the indicated plasmids, and mitotic cells were analyzed by immunoblot for the indicated proteins. […] (C) A549 cells stably transfected with doxycycline-inducible constructs encoding WT Parkin or mutant Parkin (S378A and S378D) were treated with doxycycline and subjected to IP and immunoblot as indicated (Top), in vivo ubiquitination (Bottom). (D) Athymic nude mice were injected subcutaneously with A549 cells stably-transfected with vector or doxycycline-inducible Parkin constructs (WT, S378A and S378D). Two days after injection, doxycycline was administered in drinking water. Tumor growth was measured at the indicated times after injection. n=5 for each group. […] Tumor volumes (mm^3) were measured at the indicated times after injection (Bottom). *, p<0.05, **, p<0.01 and ***, p<0.001 by two-way ANOVA. (E) Cells were infected with the indicated constructs and were collected for FACS analysis. […] Results represent the means (±S.E.) of three experiments performed in triplicate. *, p<0.05 and ***, p<0.001 versus Parkin WT MEFs by one-way ANOVA (Right). […] Mean transformed MEFs volumes for Parkin KO are shown. ***, p<0.001 and ****, p<0.0001 versus Parkin WT MEFs by two-way ANOVA.
For colony formation or foci assay, early-passage MEFs (passage 5) cells were plated at low density into 60-mm cell culture plates. […]

[4] = tested on: Parkin KO MEF tumors in nude mice; experiment: Mouse xenograft tumor model with Parkin WT or KO MEFs; format: in vivo; conditions: tumors with Parkin-deficiency, i.v., 20 mg/kg twice weekly, four cycles
Procedure: FIGS. 11A-11H. Parkin Is A Key Mitotic Regulator Functioning as a Tumor Suppressor. (A) Cells were transfected with the indicated plasmids, and mitotic cells were analyzed by immunoblot for the indicated proteins. (B) Schematic of the experiments. (C) A549 cells stably transfected with doxycycline-inducible constructs encoding WT Parkin or mutant Parkin (S378A and S378D) were treated with doxycycline and subjected to IP and immunoblot as indicated (Top), in vivo ubiquitination (Bottom). (D) Athymic nude mice were injected subcutaneously with A549 cells stably-transfected with vector or doxycycline-inducible Parkin constructs (WT, S378A and S378D). […] Tumor growth was measured at the indicated times after injection. n=5 for each group. […] Tumor volumes (mm^3) were measured at the indicated times after injection (Bottom). *, p<0.05, **, p<0.01 and ***, p<0.001 by two-way ANOVA. […]
For MEF xenograft experiments, equal numbers (1×10^6 cells) of Parkin WT or KO MEF cells expressing luciferase mixed at a 1:1 dilution with matrigel (Collaborative Research) were implanted in the backs of athymic nude mice. Tumor growth was monitored using calipers and visualized with a bioluminescence-based IVIS system (Caliper LifeScience). […] Tumour growth was measured using a vernier caliper at the indicated times after injection, and the tumor volume was calculated as length×width×height. […]

[5] = tested on: binding of Parkin to Cdc20; experiment: Parkin-Cdc20 binding in cells, IP-immunoblot; format: cell-based; conditions: cells treated with chemical, with or without nocodazole (FIG. 9J)
[6] = tested on: Parkin-deficient lung cancer cell lines; experiment: Growth inhibition of Parkin-deficient lung cancer cell lines; format: cell-based, human; conditions: BI 2536 100 nM or VX-680 50 nM for 72 hours; BI 2536 dose dependent for 3 days (FIG. 13C-13F)
Procedure: as §1, §2

[7] = tested on: Parkin KO MEFs; experiment: Transformation and escaped senescence of Parkin KO MEFs (foci formation, cell growth, SA-β-gal staining, colony formation); format: cell-based, mouse; conditions: FIG. 13A
Procedure: FIG. 13A-13F. Transformed and escape senescence events in Parkin KO MEFs were reversed by expressing WT Parkin or downregulation of Plk1 but not C431S or S378A, related to FIGS. 6. (A and B) Parkin WT and KO MEFs under various condition were analyzed for foci formation assay, number of cell growth, SA-β-gal staining for senescence, colony formation assay. Cells were infected or treated with the indicated constructs or chemical and stained (A, left). Cells were infected with the indicated constructs and stained (B, left). Quantification of (left panel) with stained cell intensity results represent the means (±S.E.) of three independent experiments performed in triplicate (right). *, p<0.05, **, p<0.01 and ***, p<0.001 by one-way ANOVA. […] Quantification of cell numbers results represent the means (±S.E.) of three independent experiments performed in triplicate. ***, p<0.001 by one-way ANOVA.
For colony formation or foci assay, early-passage MEFs (passage 5) cells were plated at low density into 60-mm cell culture plates. When sufficient colonies were visible, typically after 2-3 weeks, cells were washed twice in PBS before fixing in ice-cold 70% methanol for 30 minutes, stained by 0.2% Crystal violet for 2-3 hours. The following day cells were rinsed in PBS and air-dried. […]

## CC[C@@H]1C(=O)N(C)c2cnc(Nc3ccc(C(=O)NC4CCN(C)CC4)cc3OC)nc2N1C1CCCC1 [BI 2536, (R)-4-(8-cyclopentyl-7-ethyl-5-methyl-6-oxo-5,6,7,8-tetrahydropteridin-2-ylamino)-3-methoxy-N-(1-methylpiperidin-4-yl)benzamide]
[1]; nocodazole-arrested mitotic cells, with Plk1 inhibitor (FIG. 9D)
  Parkin phosphorylation at Ser378: blocked Parkin phosphorylation at Ser378
[2]
  sensitivity (growth inhibition) of lung normal fibroblasts: but not lung normal fibroblasts
[3]
  transformation of Parkin KO MEFs: inhibited transformation of Parkin KO MEFs
[4]
  tumor inhibition in vivo: excellent tumor inhibition
[5]
  binding of Parkin to Cdc20: decreased binding of Parkin to Cdc20
[6]
  sensitivity (growth inhibition) of Parkin-deficient lung cancer cell lines: significantly sensitive
[7]
  escaped senescence and transformation induced by Parkin depletion: transformation was abolished

## N#CC(C#N)=NNc1cccc(Cl)c1 [CCCP, carbonyl cyanide m-chlorophenylhydrazone]
[1]; cells incubated with CCCP (FIG. 9B)
  Ser 378 phosphorylation of Parkin: did not affect Ser 378 phosphorylation

## Cc1cc(Nc2cc(N3CCN(C)CC3)nc(Sc3ccc(NC(=O)C4CC4)cc3)n2)n[nH]1 [VX 680, N-(4-(4-(5-methyl-1H-pyrazol-3-ylamino)-6-(4-methylpiperazin-1-yl)pyrimidin-2-ylthio)phenyl)-cyclopropanecarboxamide]
[2]
  sensitivity (growth inhibition) of lung normal fibroblasts: but not lung normal fibroblasts
[6]
  sensitivity (growth inhibition) of Parkin-deficient lung cancer cell lines: significantly sensitive
